Test results: patent publication US20090054392A1, “NAPHTHYLPYRIMIDINE, NAPHTHYLPYRAZINE AND NAPHTHYLPYRIDAZINE ANALOGS AND THEIR USE AS AGONISTS OF THE WNT-BETA-CATENIN CELLULAR MESSAGING SYSTEM” (Wyeth, priority 2007, published 2009)

Test system: Dkk1-LRP5-TCF-Luciferase
Assay: Functional Dkk1-LRP5-TCF-Luciferase Assay in U2OS Cells
Details: for fold induction at 2 µM / fold induction at 20 µM / EC50: Homo sapiens, U2OS; for fold induction at 2 µM: read-out: B = TCF ACTIVITY/DMSO CONTROL Fold induction @ 2.0 uM, 2.0 uM compound; for fold induction at 20 µM: read-out: C = TCF ACTIVITY/DMSO CONTROL Fold induction @ 20.0 uM, 20.0 uM compound; for A = MAX FOLD Induction/DMSO CONTROL: maximum fold induction over DMSO control

| SMILES | fold induction at 2 µM | fold induction at 20 µM | EC50 [µM] | A = MAX FOLD Induction/DMSO CONTROL [fold] |
| --- | --- | --- | --- | --- |
| c1ccc2cc(-c3ccnc(N4CC[C@H](N5CCCC5)C4)n3)ccc2c1 [(3′S)-1′-[4-(2-naphthyl)pyrimidin-2-yl]-1,3′-bipyrrolidine] | 1.45 | 0.83 | – | – |
| O=C(NCC[C@H]1CCCN1c1nccc(-c2ccc3ccccc3c2)n1)C(F)(F)F [2,2,2-trifluoro-N-(2-{(2R)-1-[4-(2-naphthyl)pyrimidin-2-yl]pyrrolidin-2-yl}ethyl)acetamide] | 0.84 | 2.3 | 1.19 | 1.535 |
| O=C(NCC1CN(c2nccc(-c3ccc4ccccc4c3)n2)C1)C(F)(F)F [2,2,2-trifluoro-N-({1-[4-(2-naphthyl)pyrimidin-2-yl]azetidin-3-yl}methyl)acetamide] | 1.77 | – | – | – |
| CC(=O)NCCC1CCN(c2nccc(-c3ccc4ccccc4c3)n2)CC1 [N-(2-{1-[4-(2-naphthyl)pyrimidin-2-yl]piperidin-4-yl}ethyl)acetamide] | 2.27 | 1 | – | 1.360 |
| CC(C)NC(=O)NCCN1CCN(c2nccc(-c3ccc4ccccc4c3)n2)CC1 [N-isopropyl-N′-(2-{4-[4-(2-naphthyl)pyrimidin-2-yl]piperazin-1-yl}ethyl)urea] | 1.06 | 0.1 | – | – |
| O=C1CCN(c2nccc(-c3ccc4ccccc4c3)n2)CC1 [1-[4-(2-naphthyl)pyrimidin-2-yl]piperidin-4-one] | 1.43 | 1.19 | – | – |
| CS(=O)(=O)N[C@H]1CC[C@H](Nc2nccc(-c3ccc4ccccc4c3)n2)CC1 [N-(trans-4-{[4-(2-naphthyl)pyrimidin-2-yl]amino}cyclohexyl)methanesulfonamide] | 1.79 | 2.38 | 3.3 | 2.940 |
| NC1CCN(c2nccc(-c3ccc4ccccc4c3)n2)CC1 [1-[4-(2-naphthyl)pyrimidin-2-yl]piperidin-4-amine] | 2.11 | – | 0.97 | 1.580 |
| COC(=O)C(NC(=O)OC(C)(C)C)=C1CCN(c2nccc(-c3ccc4ccccc4c3)n2)CC1 [methyl [(tert-butoxycarbonyl)amino]{1-[4-(2-naphthyl)pyrimidin-2-yl]piperidin-4-ylidene}acetate] | 1.01 | 1.24 | – | – |
| CC(C)CNc1nccc(-c2ccc3ccccc3c2)n1 [N-isobutyl-4-(2-naphthyl)pyrimidin-2-amine] | 1.77 | – | – | – |
| O=C1CN(CC2CCN(c3nccc(-c4ccc5ccccc5c4)n3)C2)CCN1 (stereo not drawn) [4-({1-[4-(2-naphthyl)pyrimidin-2-yl]pyrrolidin-3-yl}methyl)piperazin-2-one] | 1.23 | 0.46 | – | – |
| O=C(N[C@H]1CCN(c2nccc(-c3ccc4ccccc4c3)n2)C1)N1CCCC1 [N-{(3S)-1-[4-(2-naphthyl)pyrimidin-2-yl]pyrrolidin-3-yl}pyrrolidine-1-carboxamide] | 1.89 | – | – | – |
| COc1ccc(CNc2nccc(-c3ccc4ccccc4c3)n2)cc1 [N-(4-methoxybenzyl)-4-(2-naphthyl)pyrimidin-2-amine] | – | 1.12 | – | – |
| CN(C1CCCCC1)[C@@H]1CCN(c2nccc(-c3ccc4ccccc4c3)n2)C1 [(3R)—N-cyclohexyl-N-methyl-1-[4-(2-naphthyl)pyrimidin-2-yl]pyrrolidin-3-amine] | 1.07 | 1.77 | – | – |
| N[C@H]1CCN(c2nccc(-c3ccc4ccccc4c3)n2)C1 [(3S)-1-[4-(2-naphthyl)pyrimidin-2-yl]pyrrolidin-3-amine] | 1.48 | – | – | – |
| CN(CC1CCN(c2nccc(-c3ccc4ccccc4c3)n2)CC1)C1CCCCC1 [N-methyl-N-({1-[4-(2-naphthyl)pyrimidin-2-yl]piperidin-4-yl}methyl)cyclohexanamine] | 2.87 | 0.03 | – | 2.160 |
| CC(C)(C)OC(=O)N1CC[C@@H](CNc2nccc(-c3ccc4ccccc4c3)n2)C1 [tert-butyl (3S)-3-({[4-(2-naphthyl)pyrimidin-2-yl]amino}methyl)pyrrolidine-1-carboxylate] | – | 0.01 | – | – |
| CN(C)[C@@H]1CCN(C[C@H]2CCN(c3nccc(-c4ccc5ccccc5c4)n3)C2)C1 [(3R)—N,N-dimethyl-1-({(3R)-1-[4-(2-naphthyl)pyrimidin-2-yl]pyrrolidin-3-yl}methyl)pyrrolidin-3-amine] | 2.24 | 0.02 | – | 1.440 |
| O=[N+]([O-])CC1CCN(c2nccc(-c3ccc4ccccc4c3)n2)CC1 [4-(2-naphthyl)-2-[4-(nitromethyl)piperidin-1-yl]pyrimidine] | 1.5 | 0.68 | – | – |

| SMILES | fold induction at 2 µM | fold induction at 20 µM | EC50 [µM] | A = MAX FOLD Induction/DMSO CONTROL [fold] |
| --- | --- | --- | --- | --- |
| CN(C[C@@H]1CCN(c2nccc(-c3ccc4ccccc4c3)n2)C1)C1CCCCC1 [N-methyl-N-({(3S)-1-[4-(2-naphthyl)pyrimidin-2-yl]pyrrolidin-3-yl}methyl)cyclohexanamine] | 1.37 | 2.27 | – | 3.720 |
| NC[C@H]1CC[C@H](Oc2nccc(-c3ccc4ccccc4c3)n2)CC1 [1-(trans-4-{[4-(2-naphthyl)pyrimidin-2-yl]oxy}cyclohexyl)methanamine] | – | – | 0.46 | – |
| CC(C)NC(=O)N[C@H]1CCN(c2nccc(-c3ccc4ccccc4c3)n2)C1 [N-isopropyl-N′-{(3S)-1-[4-(2-naphthyl)pyrimidin-2-yl]pyrrolidin-3-yl}urea] | 1.12 | 0.79 | – | – |
| CN1CCN(C(=O)[C@@H]2CCCN2c2nccc(-c3ccc4ccccc4c3)n2)CC1 [2-{(2S)-2-[(4-methylpiperazin-1-yl)carbonyl]pyrrolidin-1-yl}-4-(2-naphthyl)pyrimidine] | 0.9 | 1.6 | – | – |
| O=C1CN([C@@H]2CCN(c3nccc(-c4ccc5ccccc5c4)n3)C2)CCN1 [4-{(3R)-1-[4-(2-naphthyl)pyrimidin-2-yl]pyrrolidin-3-yl}piperazin-2-one] | 1.25 | 2.33 | 5.74 | 2.874 |
| CC(C)C(=O)N(C)CCN(C)[C@@H]1CCN(c2nccc(-c3ccc4ccccc4c3)n2)C1 [N,2-dimethyl-N-[2-(methyl{(3R)-1-[4-(2-naphthyl)pyrimidin-2-yl]pyrrolidin-3-yl}amino)ethyl]propanamide] | – | 1.5 | – | – |
| c1ccc2cc(-c3ccnc(N4CC[C@H](N5CCNCC5)C4)n3)ccc2c1 [4-(2-naphthyl)-2-[(3S)-3-piperazin-1-ylpyrrolidin-1-yl]pyrimidine] | 6.16 | – | 1.1 | 7.520 |
| c1ccc2cc(-c3ccnc(NCC4CCNCC4)n3)ccc2c1 [4-(2-naphthyl)-N-(piperidin-4-ylmethyl)pyrimidin-2-amine] | 1.33 | 1.36 | – | 6.120 |
| O[C@@H]1CCN([C@@H]2CCN(c3nccc(-c4ccc5ccccc5c4)n3)C2)C1 [(3R,3′R)-1′-[4-(2-naphthyl)pyrimidin-2-yl]-1,3′-bipyrrolidin-3-ol] | – | 2.5 | – | – |
| CS(=O)(=O)NCC1CN(c2nccc(-c3ccc4ccccc4c3)n2)C1 [N-({1-[4-(2-naphthyl)pyrimidin-2-yl]azetidin-3-yl}methyl)methanesulfonamide] | 1.1 | 1.38 | – | – |
| OCC1CCN([C@@H]2CCN(c3nccc(-c4ccc5ccccc5c4)n3)C2)CC1 [(1-{(3R)-1-[4-(2-naphthyl)pyrimidin-2-yl]pyrrolidin-3-yl}piperidin-4-yl)methanol] | 1.69 | 0.01 | – | – |
| O=C(N[C@@H]1CCN(c2nccc(-c3ccc4ccccc4c3)n2)C1)C(F)(F)F [2,2,2-trifluoro-N-{(3R)-1-[4-(2-naphthyl)pyrimidin-2-yl]pyrrolidin-3-yl}acetamide] | 1.97 | – | – | – |
| c1ccc2cc(-c3ccnc(N4CC[C@H](N5CCOCC5)C4)n3)ccc2c1 [4-{(3S)-1-[4-(2-naphthyl)pyrimidin-2-yl]pyrrolidin-3-yl}morpholine] | 1.17 | 3.06 | 7.5 | 2.405 |
| CN(C)C(=O)NCCN1CCN(c2nccc(-c3ccc4ccccc4c3)n2)CC1 [N,N-dimethyl-N′-(2-{4-[4-(2-naphthyl)pyrimidin-2-yl]piperazin-1-yl}ethyl)urea] | 1.98 | – | – | – |
| NCC1CCN(c2ccnc(-c3ccc4ccccc4c3)n2)CC1 [1-{1-[2-(2-naphthyl)pyrimidin-4-yl]piperidin-4-yl}methanamine] | 3.22 | 0.003 | 0.787 | 5.673 |
| CC(C)(C)OC(=O)NC1CCCN(c2nccc(-c3ccc4ccccc4c3)n2)CC1 (stereo not drawn) [tert-butyl {1-[4-(2-naphthyl)pyrimidin-2-yl]azepan-4-yl}carbamate] | 1.34 | 0.33 | – | – |
| CC(C)(C)OC(=O)NC1CCCC(Nc2nccc(-c3ccc4ccccc4c3)n2)C1 (stereo not drawn) [tert-butyl (3-{[4-(2-naphthyl)pyrimidin-2-yl]amino}cyclohexyl)carbamate] | 1.07 | 0.3 | – | – |
| NCC1CCN(c2cncc(-c3ccc4ccccc4c3)n2)CC1 [1-{1-[6-(2-naphthyl)pyrazin-2-yl]piperidin-4-yl}methanamine] | 1.6 | – | 1.16 | 2.920 |
| NC[C@@H]1CCCN(c2nccc(-c3ccc4ccccc4c3)n2)CC1 [1-{(4R)-1-[4-(2-naphthyl)pyrimidin-2-yl]azepan-4-yl}methanamine] | 2.66 | – | 1.19 | 3.950 |
